Values quoted from earlier work in patent US20020127714A1, “Inhibitors of alternative alleles of genes encoding products that mediate cell response to environmental changes” (Variagenics, Inc., a Delaware corporation, priority 1998, published 2002).
Read-outs that look alike come from different tables or passages of the source. One block for each compound: values may come before it.

Tests used:
[1] = target: T1, MGMT 160 arginine allele (Homo sapiens, UniProt P16455, G160R); conditions: 160arg versus 160gly form of MGMT; also seen as reduced production of guanine from O6-benzyl[8-3H]guanine
T1 sequence (P16455 1-207 G160R): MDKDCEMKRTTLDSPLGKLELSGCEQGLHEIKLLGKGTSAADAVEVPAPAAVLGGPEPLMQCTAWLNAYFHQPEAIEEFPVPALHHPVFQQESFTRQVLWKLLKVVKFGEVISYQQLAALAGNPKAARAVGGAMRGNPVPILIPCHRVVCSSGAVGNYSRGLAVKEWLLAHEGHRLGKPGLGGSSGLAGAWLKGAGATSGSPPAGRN

[2] = test system: serum asparagine; conditions: within hours of injection

resistance of the 160 arginine allele to inactivation, measured as an increase in the ED50 [1]: at least 20 fold
Compound: Nc1nc(OCc2ccccc2)c2nc[nH]c2n1 [O6 benzylguanine, O6-benzylguanine]

half life of 5-FU (normals): 0.13 to 0.333 h
half life of 5-FU (patients homozygous for mutant DPD alleles (DPD deficiency)): > 2.5 h
Compound: O=c1[nH]cc(F)c(=O)[nH]1 [5-FU, 5-fluorouracil]

Compound: L-asparaginase
blood levels of asparagine [2]: undetectable levels
